Results on 2 compounds are retold here after patent US20130336987A1, “Identification of Therapeutic Targets in Cutaneous SCC” (UNIVERSITY OF DUNDEE, priority 2010, published 2013).

One assay concerns SCCIC1 xenograft tumors. The assay can be described thus: SCCIC1 xenograft tumor treatment in SCID mice. The class given is in vivo, SCID Balb/c mice. Here is the method: FIG. 6—PLK1 inhibition and c20orf20 knockdown inhibits tumor growth in vivo. Female SCID Balb/c mice were subcutaneously injected in the right flank with 4×10^6 SCCIC1 cells mixed with high-concentration Matrigel®. When tumors reached a volume of 100 mm^3, animals were organised in treated and control groups. (A) Top panel: SCCIC1 tumors were treated with the PLK1 inhibitor, BI 2536. The treated group (n=3) was injected into the tumor with 100 μl of BI 2536 formulated in hydrochloric acid (0.1 N), diluted with 0.9% NaCl at a dose of 25 mg/kg, 3 times a week during 2 weeks. The control group (n=2) was injected with the vehicle at the same schedule. Tumor volumes were measured 3 times a week with a calliper for a further 2 weeks after treatment. Bottom panel: SCCIC1 tumors were treated with c20orf20 siRNA. The treated group (n=3) was injected into the tumor with 580 pmol c20orf20 targeting siRNA duplex in 100 μl PBS. The control group was injected with 580 pmol non-targeting siRNA duplex in approximately 100 μl PBS. Each group was treated every other day for 16 cycles. The animals were sacrificed 2 days after the last treatment. (B) Representative H&E stained section (top) and keratin immunostained section (bottom) of control (left) and BI2536-treated (right) SCCIC1 tumors after 2 weeks of treatment. A subset of animals was sacrificed at the end of the 6 cycles of treatment without waiting 2 more weeks. […] The control tumors contained numerous SCCIC1 cells (100× magnification). (C) Representative pictures from the experiment shown in (A) of vehicle (top left, tumor bisected showing both halves delineated by the dashed line) and BI2536-treated (top right) SCCIC1 tumors. […]
Primary keratinocytes were isolated and grown in the presence of a mitotically inactivated 3T3 feeder layer as described (Rheinwald and Beckett, 1981). […] Tumors were measured by caliper and treatment began when volume reached 100 mm^3.

Assay [1] deals with cSCC keratinocytes. Nature of the assay: Cell cycle analysis (BrdU / propidium iodide, flow cytometry). The class given is cell-based, human. The conditions noted are these: 20 hours following drug treatment, GW843682X 10 μM, BI2536 5 μM. Here is the method: Cells were RNAi transfected or drug treated for designated times before BrdU (Sigma) was added at 30 μM final volume for 20 min. Cells were collected and fixed by dropping 1 ml cell suspension in PBS into 3 ml ice cold ethanol while vortexing. Pepsin (Sigma) was added at 1 mg/ml in 30 mM HCL for 30 min and DNA denatured with 2N HCL for 20 min. Anti-BrdU antibody (Becton Dickinson) diluted in PBS/0.5% Tween/0.5% BSA was added for one hour followed by 30 min incubation with a FITC-sheep anti-mouse IgG (Sigma). Propidium iodide (Sigma) was added in the final wash step at a concentration of 25 μg/ml and samples analyzed using a FACScan flow cytometer and CellQuest software (Becton Dickinson).

In assay [2] the test system is cSCC keratinocytes (SCCIC1, SCCRDEB2). Nature of the assay: MTS cell viability assay in cSCC keratinocytes. The class given is cell-based, human. The conditions noted are these: 72 hours, GW843682X 10 μM, BI2536 5 μM. As for the experimental part:
For the initial high-throughput RNAi screen we used a custom library to our 21 up regulated genes containing the top 3 siRNA oligonucleotides per gene as ranked by Sigma. In each experiment a negative control (MISSION® siRNA Universal Negative Control #1, Sigma) and positive control (AllStars Hs Cell Death Control siRNA, Qiagen) were used. Cells were seeded in 96-well plates at 5000 cells/well in 100 μl keratinocyte media and transfected 24 hours later with siRNA (40 nM final concentration) using Lipofectamine™ 2000, Invitrogen, Carlsbad, Calif.) diluted in Opti-MEM® (Invitrogen) according to manufacturers instructions. Cell viability was assessed at 48, 72 and 96 hours post-transfection, and a reading taken at time zero (pre-transfection), using the MTS CellTitre 96 AQueous One Solution Cell Proliferation Assay (Promega, Madison, Wis.) according to manufacturers instructions. Absorbance readings were taken at 490 nm using a VersaMax microplate reader (Molecular Devices, Sunnyvale, Calif.).
For RNAi transfection, cells were seeded in 6-well plates at 2.5×10^5 cells/well and 24 hours later transfected as described above. Cells were left for 16 hours then trypsinized, counted on a CASY counter (Roche Diagnostics Ltd, West Sussex, UK) and seeded in 96 well plates at 3000 cells/well in 100 μl media. […] Viability was assessed as before.
(Tetrazolium assays rely on reduction of a dye to a coloured formazan, in cell work by metabolically active cells.)

In assay [3] the test system is normal human keratinocytes (NHK). The assay can be described thus: MTS cell viability assay in normal keratinocytes. The class given is cell-based. Particulars: 72 hours, GW843682X 10 μM, BI2536 5 μM. As for the experimental part: For RNAi transfection, cells were seeded in 6-well plates at 2.5×10^5 cells/well and 24 hours later transfected as described above. Cells were left for 16 hours then trypsinized, counted on a CASY counter (Roche Diagnostics Ltd, West Sussex, UK) and seeded in 96 well plates at 3000 cells/well in 100 μl media. Cell viability was determined using the MTS assay as described above, with an absorbance reading at time of seeding (T0) and readings 48 and 72 hour post transfection. For small molecule inhibitor treatment cells were seeded in 96-well plates at 3000 cells/well and 24 hours later 100 μl fresh media containing drug at the designated final concentrations added. Viability was assessed as before.

In assay [4] the test system is cSCC keratinocytes. Nature of the assay: Cell Death Detection ELISA (apoptosis, cytoplasmic nucleosomes) in cSCC cells. The class given is cell-based, human. Particulars: GW843682X 10 μM, BI2536 5 μM, relative to drug vehicle control. Here is the method: Apoptosis was detected using the Cell Death Detection ELISA^PLUS (Roche Diagnostics Ltd, West Sussex, UK). Cells were seeded in 24-well plates at 0.5×10^5 cells/well for 24 hours and either transfected with siRNA or treated with small molecule inhibitors for 24 or 16 hours respectively before collecting lysates and performing ELISA as described by manufacturer.

Entries after “also recorded” stand apart in the source; their conditions may differ.

As for `CC[C@@H]1C(=O)N(C)c2cnc(Nc3ccc(C(=O)NC4CCN(C)CC4)cc3OC)nc2N1C1CCCC1` [BI2536], in the assay with SCCIC1 xenograft tumors (BI2536 25 mg/kg injected into the tumor, 3 times a week, 2 weeks, treated versus control group), the “tumor volume at the end of the 6 cycles of treatment” value is reported as “no difference in tumor volume”. Moreover, in the assay with SCCIC1 xenograft tumors (BI2536 25 mg/kg injected into the tumor, 3 times a week, after 2 weeks of treatment, versus vehicle, 25 mg/kg), the “presence of tumor keratinocytes in the tumor (histology)” value is listed as “without any discernable SCCIC1 tumor cells; also recorded: marked reduction in the presence of tumor keratinocytes”. Moreover, the “efficacy in treating cSCC in vivo” value in the assay on SCCIC1 xenograft tumors (BI2536, SCCIC1 xenograft) is reported as “dramatic efficacy”. Further, the “cell cycle distribution (G0/G1, S, G2/M)” value in the assay with cSCC keratinocytes [1] is listed as “accumulation of cells at the G2/M phase”. In addition, the “cell viability (MTS assay)” value in assay [2] is reported as “potent reduction of cell viability”. In assay [3], the “growth of normal primary keratinocytes (MTS assay)” value is “no effect”. In the assay with cSCC keratinocytes [4], the “apoptosis (cleaved nucleosomes in the cytoplasm)” value is on record as “substantial induction of apoptosis”.

As for `COc1cc2ncn(-c3cc(OCc4ccccc4C(F)(F)F)c(C(N)=O)s3)c2cc1OC` [GW843682X], the “cell cycle distribution (G0/G1, S, G2/M)” value with cSCC keratinocytes [1] is reported as “accumulation of cells at the G2/M phase”. Also, the “cell viability (MTS assay)” value in assay [2] is “potent reduction of cell viability”. In assay [3], the “growth of normal primary keratinocytes (MTS assay)” value is given as “no effect”. Also, the “apoptosis (cleaved nucleosomes in the cytoplasm)” value in the assay with cSCC keratinocytes [4] was “substantial induction of apoptosis”.
